ChEMBL document CHEMBL1138077, “Arylpiperazines with N-acylated amino acids as 5-HT1A receptor ligands” (Bioorg Med Chem Lett, 2006)

Biological target: T1, 5-hydroxytryptamine receptor 1A (Homo sapiens, UniProt P08908)
T1 sequence (P08908 whole entry): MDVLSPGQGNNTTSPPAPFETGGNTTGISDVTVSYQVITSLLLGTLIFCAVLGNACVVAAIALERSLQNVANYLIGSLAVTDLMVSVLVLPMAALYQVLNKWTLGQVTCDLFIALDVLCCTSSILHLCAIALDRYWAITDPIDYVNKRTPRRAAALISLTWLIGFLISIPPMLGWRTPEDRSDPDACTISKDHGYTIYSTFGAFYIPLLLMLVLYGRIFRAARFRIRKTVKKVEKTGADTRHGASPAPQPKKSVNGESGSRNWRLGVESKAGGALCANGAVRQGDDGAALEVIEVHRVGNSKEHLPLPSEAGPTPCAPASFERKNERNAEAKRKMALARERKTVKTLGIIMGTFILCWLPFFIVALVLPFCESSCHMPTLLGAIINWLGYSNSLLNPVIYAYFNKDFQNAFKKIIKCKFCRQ
Experiment: Affinity for 5HT1A receptor

SMILES | Ki [nM]
COc1ccccc1N1CCN(CCCCNC(=O)[C@@H]2CCC(=O)N2C(=O)C2CCCCC2)CC1 | 17
COc1ccccc1N1CCN(CCCCNC(=O)[C@H](CC(N)=O)NC(=O)C2CCCCC2)CC1 | 24
COc1ccccc1N1CCN(CCCCN2C(=O)C[C@H](NC(=O)C3CCCC3)C2=O)CC1 | 40
COc1ccccc1N1CCN(CCCN2C(=O)C[C@H](NC(=O)C3CCCC3)C2=O)CC1 | 170
COc1ccccc1N1CCN(CCCCNC(=O)[C@H](CC(N)=O)NC(=O)CC2CC3CCC2C3)CC1 (some centres undefined) | 11
COc1ccccc1N1CCN(CCCCNC(=O)[C@@H]2CCCN2C(=O)C2CCCCC2)CC1 | 27
COc1ccccc1N1CCN(CCCN2C(=O)C[C@H](NC(C)=O)C2=O)CC1 | 480
COc1ccccc1N1CCN(CCCCN2C(=O)C[C@H](NC(=O)C34CC5CC(CC(C5)C3)C4)C2=O)CC1 | 15
COc1ccccc1N1CCN(CCCCN2C(=O)C[C@H](NC(=O)CC3CC4CCC3C4)C2=O)CC1 (some centres undefined) | 18
COc1ccccc1N1CCN(CCCN2C(=O)C[C@H](NC(=O)CC3CC4CCC3C4)C2=O)CC1 (some centres undefined) | 40
COc1ccccc1N1CCN(CCCN2C(=O)C[C@H](NC(=O)C34CC5CC(CC(C5)C3)C4)C2=O)CC1 | 63
COc1ccccc1N1CCN(CCCCN2C(=O)C[C@H](NC(C)=O)C2=O)CC1 | 69
COc1ccccc1N1CCN(CCCCN2C(=O)C[C@@H](NC(=O)C34CC5CC(CC(C5)C3)C4)C2=O)CC1 | 9
COc1ccccc1N1CCN(CCCCN2C(=O)C[C@@H](NC(=O)C3CCCCC3)C2=O)CC1 | 17
COc1ccccc1N1CCN(CCCCNC(=O)[C@H]2CCCN2C(=O)CC2CC3CCC2C3)CC1 (some centres undefined) | 17
COc1ccccc1N1CCN(CCCN2C(=O)C[C@H](NC(=O)C3CCCCC3)C2=O)CC1 | 230
COc1ccccc1N1CCN(CCCCNC(=O)[C@H]2CCCN2C(=O)C23CC4CC(CC(C4)C2)C3)CC1 | 25
COc1ccccc1N1CCN(CCCCNC(=O)[C@@H]2CCCN2C(=O)C23CC4CC(CC(C4)C2)C3)CC1 | 4
COc1ccccc1N1CCN(CCCCN2C(=O)C[C@H](NC(=O)C3CCCCC3)C2=O)CC1 | 29
COc1ccccc1N1CCN(CCCN2C(=O)C[C@H](NC(=O)c3ccccc3)C2=O)CC1 | 260
COc1ccccc1N1CCN(CCCCNC(=O)[C@@H]2CCC(=O)N2C(=O)CC2CC3CCC2C3)CC1 (some centres undefined) | 12
COc1ccccc1N1CCN(CCCCNC(=O)[C@@H]2CCCN2C(=O)CC2CC3CCC2C3)CC1 (some centres undefined) | 12
COc1ccccc1N1CCN(CCCCN2C(=O)C[C@H](NC(=O)c3ccccc3)C2=O)CC1 | 50
COc1ccccc1N1CCN(CCCCN2C(=O)C[C@@H](NC(=O)CC3CC4CCC3C4)C2=O)CC1 (stereo in doubt; 9'{5,5}) | 17
